Marks after values point to notes of the source that are not given here.
Columns and labels:
N-STZ-1.5 rats = assay: Oral glucose tolerance test using N-STZ-1.5 rats (glucose-lowering effects and insulinotropic action); assay type: in vivo, rat; conditions: 3 mg/kg body weight oral, 1 hr before glucose loading 1.5 g/kg, male N-STZ-1.5 rats, n=6; for blood glucose decrease rate (%): glucose AUC (0-60 min) vs control group; for insulin increase rate (fold): insulin AUC (0-60 min) test group/control group
Procedure: The glucose-lowering effects and insulinotropic action of the compound of the present invention were evaluated by an oral glucose tolerance test using N-STZ-1.5 rats.
Streptozotocin (120 mg/kg) was subcutaneously administered to 1 or 2 days-old male Wistar Kyoto rats to prepare type 2 diabetic model N-STZ-1.5 rats. The rats were allowed free access to standard laboratory chow diet (CE-2, CLEA Japan, Inc.).
Male N-STZ-1.5 rats (25-week-old) were fasted for 15-17 hr, and the body weight was measured. Heparin (Ajinomoto Co., Inc.) as an anticoagulant and aprotinin (SIGMA) as a protease inhibitor were added, blood samples were collected from tail vein. The blood was centrifuged, the concentrations of glucose and triglyceride in plasma were measured, and the rats were divided into each group (n=6) based on these parameters. A 0.5% methylcellulose (control group) or a 0.5% methylcellulose suspension containing a test compound (3 mg/kg body weight) was orally administered to the rats at 5 ml/kg and, 1 hr after the administration, glucose solution (Otsuka Pharmaceutical Co., Ltd.) was orally administered at 1.5 g/7.5 ml/kg. Immediately before (0 min value) and 10, 30 and 60 min after the glucose loading, blood was drawn from the tail vein, centrifuged, and the concentrations of glucose and insulin in plasma were measured. The glucose and triglyceride concentrations were measured by automatic analysis apparatus 7180 (Hitachi, Ltd.), and the insulin concentration was measured by rat insulin radioimmunoassay kit (MIllipore). The area under glucose curve (AUC) and insulin AUC were calculated using the following formulas, and the blood glucose decrease rate (%) and insulin increase rate (fold) were calculated by the following formulas from the obtained AUCs. A statistical significant difference from the control group was analyzed by the Dunnett's test or Steel's test.
Glucose AUC (0-60 Min): {(0 min glucose in plasma)+(10 min glucose in plasma)}×10/2+{(10 min glucose in plasma)+(30 min glucose in plasma)}×20/2+{(30 min glucose in plasma)+(60 min glucose in plasma)}×30/2 insulin AUC (0-60 Min): {(0 min insulin in plasma)+(10 min insulin in plasma)}×10/2+{(10 min insulin in plasma)+(30 min insulin in plasma)}×20/2+{(30 min insulin in plasma)+(60 min insulin in plasma)}×30/2 Blood Glucose Decrease Rate (%): [(test compound administration group glucose AUC/control group glucose AUC)−1]×100 insulin Increase Rate (Fold):
test compound administration group insulin AUC/control group insulin AUC

human GPR40 = target: T1, human GPR40 (Homo sapiens, UniProt O14842); assay: Evaluation of human GPR40 agonist activity with increase in intracellular Ca2+ concentration as an index (FLIPR); assay type: cell-based; conditions: test compound 1 μM; CHO(dhfr−) cells stably expressing human GPR40; 100% = 10 μM compound of Example 153, 0% = DMSO
T1 construct: expressed in transfected cells
T1 sequence (O14842 whole entry): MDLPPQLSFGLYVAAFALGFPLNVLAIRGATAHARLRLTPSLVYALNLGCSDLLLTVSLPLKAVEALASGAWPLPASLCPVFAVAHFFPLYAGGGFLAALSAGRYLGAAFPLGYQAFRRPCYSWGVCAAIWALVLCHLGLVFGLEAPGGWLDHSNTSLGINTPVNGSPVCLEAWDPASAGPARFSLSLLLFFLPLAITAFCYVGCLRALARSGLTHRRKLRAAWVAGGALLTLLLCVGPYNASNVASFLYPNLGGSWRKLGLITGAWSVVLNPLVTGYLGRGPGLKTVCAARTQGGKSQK
Procedure, shortened: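 CHO(dhfr−) cells stably expressing full-length human GPR40 were loaded with Ca2+ probe for 1 h at room temperature, then given test compound at 1 μM final. Fluorescence was followed on FLIPR, with activity scaled to a reference agonist at 10 μM (100%) and DMSO (0%).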

Compound | blood glucose decrease rate (%) (N-STZ-1.5 rats) | insulin increase rate (fold) (N-STZ-1.5 rats) | activation at 1 µM (human GPR40) [%] | Activity (human GPR40 agonist activity) (human GPR40) [%]
COc1ccc(C(=O)N(CC(C)(C)F)c2cc(C)ccn2)c(N2CCC(COc3cc(C(CC(=O)O)C4CC4)ccn3)CC2)c1 (stereo not shown) [Example 185, 3-cyclopropyl-3-(2-((1-(2-((2-fluoro-2-methylpropyl)(4-methylpyridin-2-yl)carbamoyl)-5-methoxyphenyl)piperidin-4-yl)methoxy)pyridin-4-yl)propanoic acid] | 30.8^$ % | 1.6 fold |  | 
COc1ccc(C(=O)N(CC(C)(C)C)c2ccccn2)c(N2CCC(COc3cc([C@@H](CC(=O)O)C4CC4)ccn3)CC2)c1 [Example 247, (3S)-3-cyclopropyl-3-(2-((1-(2-((2,2-dimethylpropyl)(pyridin-2-yl)carbamoyl)-5-methoxyphenyl)piperidin-4-yl)methoxy)pyridin-4-yl)propanoic acid] | 41.5^$ % | 2.0** fold | 102 | 
COc1ccc(C(=O)N(CC(C)(C)C)c2cccc(C)n2)c(N2CCC(COc3cc([C@@H](CC(=O)O)C4CC4)ccn3)CC2)c1 [Example 245, (3S)-3-cyclopropyl-3-(2-((1-(2-((2,2-dimethylpropyl)(6-methylpyridin-2-yl)carbamoyl)-5-methoxyphenyl)piperidin-4-yl)methoxy)pyridin-4-yl)propanoic acid] | 44.5^$ % | 2.1** fold |  | 102
COc1ccc(C(=O)N(CC(C)(C)C)c2nc(C)cc(C)n2)c(N2CCC(COc3cc([C@@H](CC(=O)O)C4CC4)ccn3)CC2)c1 [Example 246, (3S)-3-cyclopropyl-3-(2-((1-(2-((2,2-dimethylpropyl)(4,6-dimethylpyrimidin-2-yl)carbamoyl)-5-methoxyphenyl)piperidin-4-yl)methoxy)pyridin-4-yl)propanoic acid] | 42.7^$ % | 2.1** fold | 103 | 
COc1ccc(C(=O)N(CC(C)(C)C)c2ncccn2)c(N2CCC(COc3cc(C(CC(=O)O)C4CC4)ccn3)CC2)c1 (stereo not shown) [Example 184, 3-cyclopropyl-3-(2-((1-(2-((2,2-dimethylpropyl)(pyrimidin-2-yl)carbamoyl)-5-methoxyphenyl)piperidin-4-yl)methoxy)pyridin-4-yl)propanoic acid] | 27.9^$ % | 1.4 fold |  | 
